Experimental data as given in PMC9182348, “Adamantane-Monoterpenoid Conjugates Linked via Heterocyclic Linkers Enhance the Cytotoxic Effect of Topotecan” (Molecules, 2022).
Entries after “also recorded” stand apart in the source; their conditions may differ.

Tests used:
HeLa cells [1] = experiment: Influence of compounds on topotecan cytotoxicity, HeLa; type: cell-based; conditions: Homo sapiens, topotecan alone, read-out: Tpc CC50 HeLa
Description: (§1) Then, we tested the ability of the adamantane–monoterpenoid derivatives to sensitize cells to the action of topotecan. For this, we chose a low-toxic concentration 20 μM and varied the concentrations of topotecan (Supplementary Figure S3).
(§2) In the reverse experiment, when the concentrations of the compounds were varied with 30 nM topotecan (in the experiments with HEK293A cells) or 3 μM topotecan (in the experiments with HeLa cells), respectively, a noticeable synergistic effect on HeLa cells was already observed at low concentrations of TDP1 inhibitors (1 and 5 μM) (Supplementary Figure S4). Given that the IC50 values for these compounds are >5 μM, this also indicates the presence of other targets in addition to TDP1.
The cytotoxicity of the compounds to HeLa (human cervical cancer) and HEK293A (human embryonic kidney) cell lines was examined using the EZ4U Cell Proliferation and Cytotoxicity Assay (Biomedica, Vienna, Austria), according to the manufacturer’s protocols. […] The cell culture was monitored for 3 days. To assess the influence of the inhibitors on the cytotoxic effect of topotecan (Selleck Chemicals, Houston, TX, USA), 50% cytotoxic concentrations of topotecan and of each inhibitor were determined to attain a defined single-agent effect. […]

[2] = Influence of compounds on topotecan cytotoxicity, HEK293A; type: cell-based, human; conditions: human, HEK293A cells; topotecan alone; read-out: Tpc CC50 HEK293A
Description: as §1, §2
(§3) The cytotoxicity of the compounds to HeLa (human cervical cancer) and HEK293A (human embryonic kidney) cell lines was examined using the EZ4U Cell Proliferation and Cytotoxicity Assay (Biomedica, Vienna, Austria), according to the manufacturer’s protocols. The cells were grown in DMEM (Dulbecco’s Modified Eagle’s Medium) with 50 IU/mL penicillin, 50 μg/mL streptomycin (MP Biomedicals, Santa Ana, CA, USA), and 10% of fetal bovine serum (Biolot, St. Petersburg, Russia) in a 5% CO2 atmosphere. After formation of a 30–50%-monolayer, the tested compounds were added to the medium. The volume of the added reagents was 1/100 of the total volume of the culture medium, and the amount of DMSO (Sigma, St. Louis, MO, USA) was 1% of the final volume. The cell culture was monitored for 3 days. To assess the influence of the inhibitors on the cytotoxic effect of topotecan (Selleck Chemicals, Houston, TX, USA), 50% cytotoxic concentrations of topotecan and of each inhibitor were determined to attain a defined single-agent effect. Then, a minimum of two independent tests were performed with each inhibitor in combination with topotecan. When using a combination of drugs, TDP1 inhibitors were first added, then topotecan was added immediately (within 10–15 min).

TDP1 = TDP1 (Homo sapiens, UniProt Q9NUW8); experiment: TDP1 activity, real-time fluorescence biosensor assay; type: biochemical
Sequence of TDP1 (Q9NUW8 whole entry): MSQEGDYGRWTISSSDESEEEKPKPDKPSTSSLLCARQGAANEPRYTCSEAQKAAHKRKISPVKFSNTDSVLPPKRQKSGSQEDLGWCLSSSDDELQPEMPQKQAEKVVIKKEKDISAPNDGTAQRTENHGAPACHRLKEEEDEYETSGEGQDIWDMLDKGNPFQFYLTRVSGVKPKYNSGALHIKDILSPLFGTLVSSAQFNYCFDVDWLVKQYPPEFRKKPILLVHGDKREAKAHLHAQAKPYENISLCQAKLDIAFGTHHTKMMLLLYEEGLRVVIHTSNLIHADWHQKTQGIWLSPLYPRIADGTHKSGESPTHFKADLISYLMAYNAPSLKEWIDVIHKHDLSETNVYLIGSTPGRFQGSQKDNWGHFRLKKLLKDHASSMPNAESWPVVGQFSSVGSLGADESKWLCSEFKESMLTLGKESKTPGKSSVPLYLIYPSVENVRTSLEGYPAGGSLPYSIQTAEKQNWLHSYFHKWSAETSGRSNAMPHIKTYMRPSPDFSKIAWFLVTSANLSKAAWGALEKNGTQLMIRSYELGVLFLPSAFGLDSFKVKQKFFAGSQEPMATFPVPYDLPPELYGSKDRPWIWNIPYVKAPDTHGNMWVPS

[3] = Intrinsic cytotoxicity, EZ4U assay, HeLa; type: cell-based, human; conditions: human, HeLa cells, compound alone, 3 days
Description: (§4) Next, we tested the compounds’ intrinsic toxicity against cervical cancer HeLa cells and non-cancerous HEK293A immortalized human embryonic kidney cells using the EZ4U assay format.
as §3

HeLa cells [4] = experiment: Intrinsic cytotoxicity, EZ4U assay, HeLa; type: cell-based, human; conditions: HeLa and HEK293A cells
Description: as §4, §3

[5] = Intrinsic cytotoxicity, EZ4U assay, HEK293A; type: cell-based; conditions: human, HEK293A cells, compound alone
Description: as §4, §3

HEK293A cells = experiment: Influence of compounds on topotecan cytotoxicity, HEK293A; type: cell-based, human
Description: as §1, §2, §3

HeLa cells [6] = experiment: Combination index (CI) of topotecan and TDP1 inhibitors, CompuSyn; type: cell-based, human
Description: For HeLa cells, we calculated the combination index (CI), the parameter that is used to determine the degree of drug interaction. The combination index (CI) values for the different concentrations (Supplementary Figure S3) of topotecan and TDP1 inhibitors were less than one, and for some compounds less than 0.1 (Supplementary Table S1). This indicates a strong synergistic effect of topotecan and […]. The CI values were calculated with the CompuSyn version 1.0 software.
as §3

SMILES | IC50 (TDP1) [µM] | CC50 at 3 days [3] [µM] | intrinsic toxicity (in words) (HeLa cells [4]) | CC50 at 3 days [5] [µM] | Effect (HeLa cells [6]; Tpc 0.3 µM + 20 µM compound) | Effect (HeLa cells [6]; Tpc 0.6 µM + 20 µM compound) | CI (HeLa cells [6]; Tpc 2.5 µM + 20 µM compound) | Effect (HeLa cells [6]; Tpc 2.5 µM + 20 µM compound) | CI (HeLa cells [6]; Tpc 5.0 µM + 20 µM compound) | Effect (HeLa cells [6]; Tpc 5.0 µM + 20 µM compound) | Effect (HeLa cells [6]; Tpc […] + 20 µM compound) | melting point [°C] | further results
CC[C@@]1(O)C(=O)OCc2c1cc1n(c2=O)Cc2cc3c(CN(C)C)c(O)ccc3nc2-1 [Tpc, topotecan] |  |  |  |  |  |  |  |  |  |  |  |  | CC50 (HeLa cells [1]): 4 ± 1.3 µM; CC50 at 3 days [2]: 0.066 ± 0.028 µM
CC1=CC[C@H](CCSc2nc(C34CC5CC(CC(C5)C3)C4)n[nH]2)C1(C)C [14a, 3-(Adamantan-1-yl)-5-((2-((R)-2,2,3-trimethylcyclopent-3-en-1-yl)ethyl)thio)-1H-1,2,4-triazole] | 5.5 ± 1.5 | 53 ± 8 | moderate toxicity | 47 ± 3 | 0.17 | 0.47 | 0.4461 | 0.92 | 0.7177 | 0.96 | 0.81 | 113.5 | effect on the action of topotecan on HEK293A cells (in words) (HEK293A cells): protected HEK293A cells from the action of topotecan; CI (HeLa cells [6]; Tpc […] + 20 µM compound): 0.2872
CC1(C)[C@@H]2CC[C@@]1(C(=O)Nc1nnc(C34CC5CC(CC(C5)C3)C4)s1)C(=O)C2 [compound 16, (1S,4R)-N-(5-(Adamantan-1-yl)-1,3,4-thiadiazol-2-yl)-7,7-dimethyl-2-oxobicyclo[2.2.1]heptane-1-carboxamide] | > 30 | 20 ± 8 | moderate toxicity | 23 ± 10 | 0.035 | 0.1 | 0.5114 | 0.75 | 0.8721 | 0.85 | 0.36 | 269.6 | anti-TDP1 activity (in words) (TDP1): not exhibiting anti-TDP1 activity; also recorded: ineffective
CC1=CC[C@H](CC(=O)Nc2nnc(C34CC5CC(CC(C5)C3)C4)s2)C1(C)C [15a, N-(5-(Adamantan-1-yl)-1,3,4-thiadiazol-2-yl)-2-((R)-2,2,3-trimethylcyclopent-3-en-1-yl)acetamide] | 6.1 ± 2.6 | > 100 |  | > 100 |  |  |  |  |  |  |  | 209.2 to 210.1 | Effect (HeLa cells [6]; Tpc 0.3 µM + 50 µM compound): 0.27; CI (HeLa cells [6]; Tpc 0.5 µM + 50 µM compound): 0.07887; Effect (HeLa cells [6]; Tpc 0.5 µM + 50 µM compound): 0.53; CI (HeLa cells [6]; Tpc 1.0 µM + 50 µM compound): 0.06365; Effect (HeLa cells [6]; Tpc 1.0 µM + 50 µM compound): 0.73; CI (HeLa cells [6]; Tpc 2.0 µM + 50 µM compound): 0.06893; Effect (HeLa cells [6]; Tpc 2.0 µM + 50 µM compound): 0.83; CI (HeLa cells [6]; Tpc 4.0 µM + 50 µM compound): 0.07307; Effect (HeLa cells [6]; Tpc 4.0 µM + 50 µM compound): 0.9
CC1(C)[C@@H]2CC[C@@]1(CS(=O)(=O)Nc1nnc(C34CC5CC(CC(C5)C3)C4)s1)C(=O)C2 [compound 17, N-(5-(Adamantan-1-yl)-1,3,4-thiadiazol-2-yl)-1-((1S,4R)-7,7-dimethyl-2-oxobicyclo[2.2.1]heptan-1-yl)methanesulfonamide] | > 30 | 100 ± 20 |  | > 100 | 1.0E-4 | 0.02 | 0.7924 | 0.6 | 1.176 | 0.81 | 0.25 | 200.3 to 200.5 | anti-TDP1 activity (in words) (TDP1): not exhibiting anti-TDP1 activity; also recorded: ineffective
CC1=CC[C@@H](CCSc2nc(C34CC5CC(CC(C5)C3)C4)n[nH]2)C1(C)C [14b, 3-(Adamantan-1-yl)-5-((2-((S)-2,2,3-trimethylcyclopent-3-en-1-yl)ethyl)thio)-1H-1,2,4-triazole] | 6.1 ± 0.1 | 54 ± 7 | moderate toxicity | 50 ± 3 | 0.94 |  |  |  |  |  |  | 111.8 to 112.4 | CI (HeLa cells [6]; Tpc 0.3 µM + 20 µM compound): 0.00419; CI (HeLa cells [6]; Tpc 0.5 µM + 20 µM compound): 0.00165; Effect (HeLa cells [6]; Tpc 0.5 µM + 20 µM compound): 0.97; CI (HeLa cells [6]; Tpc 1.0 µM + 20 µM compound): 0.00117; Effect (HeLa cells [6]; Tpc 1.0 µM + 20 µM compound): 0.98; CI (HeLa cells [6]; Tpc 2.0 µM + 20 µM compound): 0.00166; Effect (HeLa cells [6]; Tpc 2.0 µM + 20 µM compound): 0.98; CI (HeLa cells [6]; Tpc 4.0 µM + 20 µM compound): 0.00113; Effect (HeLa cells [6]; Tpc 4.0 µM + 20 µM compound): 0.99
CC1=CC[C@@H](CC(=O)Nc2nnc(C34CC5CC(CC(C5)C3)C4)s2)C1(C)C [15b, N-(5-(Adamantan-1-yl)-1,3,4-thiadiazol-2-yl)-2-((S)-2,2,3-trimethylcyclopent-3-en-1-yl)acetamide] | ~5 | > 100 |  | > 100 |  |  |  |  |  |  |  | 210.9 | effect on the action of topotecan on HEK293A cells (in words) (HEK293A cells): protected HEK293A cells from the action of topotecan; Effect (HeLa cells [6]; Tpc 0.3 µM + 50 µM compound): 0.48; CI (HeLa cells [6]; Tpc 0.5 µM + 50 µM compound): 0.05563; Effect (HeLa cells [6]; Tpc 0.5 µM + 50 µM compound): 0.69; CI (HeLa cells [6]; Tpc 1.0 µM + 50 µM compound): 0.04653; Effect (HeLa cells [6]; Tpc 1.0 µM + 50 µM compound): 0.84; CI (HeLa cells [6]; Tpc 2.0 µM + 50 µM compound): 0.05382; Effect (HeLa cells [6]; Tpc 2.0 µM + 50 µM compound): 0.9; CI (HeLa cells [6]; Tpc 4.0 µM + 50 µM compound): 0.09564; Effect (HeLa cells [6]; Tpc 4.0 µM + 50 µM compound): 0.91
